Test results from patent US11226337B2, “Chemoproteomic profiling of protein electrophilic and oxidative post-translational modifications” (Zenagem, LLC, priority 2017, dated 2022).

Assays:
Assay in all cases: SILAC RP-ABPP
Assay type in all cases: cell-based
[1] = molecular target: T1, XPNPEP3 Probable XaaPro aminopeptidase 3 (Q9NQH7) (Homo sapiens, UniProt Q9NQH7); settings: SILAC H/L, HEK293T
T1 construct: In Situ Labelling of Cells with Hydrazine Probes for MS Experiments; endogenous in cells; host or cells: HEK293T and/or MDA-MB-231
In short: (§1)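 Heavy SILAC HEK293T or MDA-MB-231 cells were treated with a clickable hydrazine probe; light cells received the non-clickable analogue (enrichment) or the probe plus 10-fold excess non-clickable competitor (competition). Mixed proteomes underwent CuAAC with 100 μM biotin-azide for 1 h. Heavy:light ratios were taken as median peptide ratios (≥3 peptides) averaged over ≥3 replicates.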

[2] = molecular target: T2, PHF8 Histone lysine demethylase PHF8 (Q9UPP1) (Homo sapiens, UniProt Q9UPP1); settings: SILAC H/L, HEK293T
T2 construct: In Situ Labelling of Cells with Hydrazine Probes for MS Experiments; endogenous in cells
In short: as §1

[3] = molecular target: T3, MMP14 Matrix metalloproteinase14 (P50281) (Homo sapiens, UniProt P50281); settings: SILAC H/L, MDA-MB-231
T3 construct: endogenous in cells; host or cells: HEK293T or MDA-MB-231
In short: as §1

[4] = molecular target: T4, PYROXD2 Pyridine nucleotidedisulfide (Q8N2H3) (Homo sapiens, UniProt Q8N2H3); settings: SILAC H/L, MDA-MB-231
T4 construct: In Situ Labelling of Cells with Hydrazine Probes for MS Experiments; endogenous in cells; host or cells: HEK293T and/or MDA-MB-231
T4 sequence (Q8N2H3 whole entry): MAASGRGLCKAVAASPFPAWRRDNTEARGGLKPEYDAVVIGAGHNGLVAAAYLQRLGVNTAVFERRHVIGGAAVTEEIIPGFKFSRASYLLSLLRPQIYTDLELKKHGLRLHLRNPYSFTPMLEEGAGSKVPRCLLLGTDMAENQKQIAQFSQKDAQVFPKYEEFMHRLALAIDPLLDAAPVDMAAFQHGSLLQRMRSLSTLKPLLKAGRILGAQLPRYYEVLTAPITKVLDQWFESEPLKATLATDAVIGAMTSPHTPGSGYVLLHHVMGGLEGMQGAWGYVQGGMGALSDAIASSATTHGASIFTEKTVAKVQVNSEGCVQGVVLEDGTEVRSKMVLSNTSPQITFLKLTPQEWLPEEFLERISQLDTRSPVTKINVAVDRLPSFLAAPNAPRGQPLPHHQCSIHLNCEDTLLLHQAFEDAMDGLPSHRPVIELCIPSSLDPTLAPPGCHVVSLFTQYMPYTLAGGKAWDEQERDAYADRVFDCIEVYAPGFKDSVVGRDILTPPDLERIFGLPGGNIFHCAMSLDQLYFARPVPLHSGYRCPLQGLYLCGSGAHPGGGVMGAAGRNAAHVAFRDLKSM
In short: as §1

[5] = molecular target: T5, ASAH1 Acid ceramidase (Q13510) (Homo sapiens, UniProt Q13510); settings: SILAC H/L, MDA-MB-231
T5 construct: endogenous in cells; host or cells: HEK293T or MDA-MB-231
T5 sequence (Q13510 22-395): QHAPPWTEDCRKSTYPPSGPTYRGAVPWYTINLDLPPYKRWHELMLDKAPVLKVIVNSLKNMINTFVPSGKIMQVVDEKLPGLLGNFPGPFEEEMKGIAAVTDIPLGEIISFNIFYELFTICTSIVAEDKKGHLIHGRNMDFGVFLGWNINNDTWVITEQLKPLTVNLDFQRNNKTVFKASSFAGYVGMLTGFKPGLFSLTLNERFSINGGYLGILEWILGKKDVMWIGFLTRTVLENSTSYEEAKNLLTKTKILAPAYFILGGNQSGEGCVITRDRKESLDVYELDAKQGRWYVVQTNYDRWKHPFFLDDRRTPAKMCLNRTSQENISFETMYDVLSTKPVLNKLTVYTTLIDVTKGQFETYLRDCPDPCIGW
In short: as §1

[6] = molecular target: T6, KDM5C Lysinespecific demethylase 5C (P41229) (Homo sapiens, UniProt P41229); settings: SILAC H/L, HEK293T
T6 construct: In Situ Labelling of Cells with Hydrazine Probes for MS Experiments; endogenous in cells; host or cells: HEK293T and/or MDA-MB-231
In short: as §1

[7] = molecular target: T7, CYP51A1 Lanosterol 14alpha demethylase (Q16850) (Homo sapiens, UniProt Q16850); settings: SILAC H/L, HEK293T
T7 construct: In Situ Labelling of Cells with Hydrazine Probes for MS Experiments; endogenous in cells; host or cells: HEK293T and/or MDA-MB-231
T7 sequence (Q16850 whole entry): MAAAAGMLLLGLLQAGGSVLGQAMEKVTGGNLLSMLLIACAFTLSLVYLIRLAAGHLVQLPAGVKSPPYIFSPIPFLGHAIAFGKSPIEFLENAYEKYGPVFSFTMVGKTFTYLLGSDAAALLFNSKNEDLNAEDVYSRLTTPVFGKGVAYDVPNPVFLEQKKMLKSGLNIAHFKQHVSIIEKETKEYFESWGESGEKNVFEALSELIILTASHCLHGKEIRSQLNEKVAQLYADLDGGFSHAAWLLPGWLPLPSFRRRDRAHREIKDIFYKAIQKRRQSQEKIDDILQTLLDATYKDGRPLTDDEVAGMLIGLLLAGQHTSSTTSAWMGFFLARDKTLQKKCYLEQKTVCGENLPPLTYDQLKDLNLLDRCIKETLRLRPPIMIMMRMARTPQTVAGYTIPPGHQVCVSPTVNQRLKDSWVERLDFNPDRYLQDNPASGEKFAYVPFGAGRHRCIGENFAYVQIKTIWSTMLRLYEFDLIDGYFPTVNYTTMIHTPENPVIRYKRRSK
In short: as §1

[8] = molecular target: T8, BCAT1 Branchedchainaminoacid (P54687) (Homo sapiens, UniProt P54687); settings: SILAC H/L, MDA-MB-231
T8 construct: endogenous in cells; host or cells: HEK293T or MDA-MB-231
In short: as §1

[9] = molecular target: T9, FADS2 Fatty acid desaturase 2 (O95864) (Homo sapiens, UniProt O95864); settings: SILAC H/L, HEK293T
T9 construct: In Situ Labelling of Cells with Hydrazine Probes for MS Experiments; endogenous in cells; host or cells: HEK293T and/or MDA-MB-231
T9 sequence (O95864 whole entry): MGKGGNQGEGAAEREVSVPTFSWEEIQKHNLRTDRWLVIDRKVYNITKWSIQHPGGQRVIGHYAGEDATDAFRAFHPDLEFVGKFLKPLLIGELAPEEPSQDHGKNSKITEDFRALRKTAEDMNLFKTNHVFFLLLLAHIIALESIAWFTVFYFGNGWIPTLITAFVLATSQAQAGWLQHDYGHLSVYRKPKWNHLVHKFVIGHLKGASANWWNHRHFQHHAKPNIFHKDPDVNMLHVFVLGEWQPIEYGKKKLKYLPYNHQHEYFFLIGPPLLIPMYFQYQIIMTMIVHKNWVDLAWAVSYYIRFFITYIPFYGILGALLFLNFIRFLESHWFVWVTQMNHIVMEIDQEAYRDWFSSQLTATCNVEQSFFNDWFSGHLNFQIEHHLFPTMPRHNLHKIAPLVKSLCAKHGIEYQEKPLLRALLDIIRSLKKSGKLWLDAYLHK
In short: as §1

[10] = molecular target: T10, HEXB Betahexosaminidase subunit beta (P07686) (Homo sapiens, UniProt P07686); settings: SILAC H/L, MDA-MB-231
T10 construct: endogenous in cells; host or cells: HEK293T or MDA-MB-231
T10 sequence (P07686 122-556, one chain of several): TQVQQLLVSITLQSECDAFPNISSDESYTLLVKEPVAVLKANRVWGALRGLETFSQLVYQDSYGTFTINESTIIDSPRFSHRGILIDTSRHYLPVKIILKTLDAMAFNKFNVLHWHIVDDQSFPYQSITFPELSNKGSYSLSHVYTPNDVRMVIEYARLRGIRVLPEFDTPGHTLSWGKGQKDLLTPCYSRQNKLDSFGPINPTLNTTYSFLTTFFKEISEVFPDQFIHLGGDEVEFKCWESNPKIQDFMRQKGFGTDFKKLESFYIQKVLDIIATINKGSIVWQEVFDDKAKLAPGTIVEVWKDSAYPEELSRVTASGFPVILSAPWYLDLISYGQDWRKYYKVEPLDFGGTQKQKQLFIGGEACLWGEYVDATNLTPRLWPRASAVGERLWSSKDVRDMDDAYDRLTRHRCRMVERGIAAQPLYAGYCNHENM
In short: as §1

[11] = molecular target: T11, PLOD2 Procollagenlysine, 2oxoglutarate (O00469) (Homo sapiens, UniProt O00469); settings: SILAC H/L, MDA-MB-231
T11 construct: endogenous in cells; host or cells: HEK293T or MDA-MB-231
T11 sequence (O00469 26-737): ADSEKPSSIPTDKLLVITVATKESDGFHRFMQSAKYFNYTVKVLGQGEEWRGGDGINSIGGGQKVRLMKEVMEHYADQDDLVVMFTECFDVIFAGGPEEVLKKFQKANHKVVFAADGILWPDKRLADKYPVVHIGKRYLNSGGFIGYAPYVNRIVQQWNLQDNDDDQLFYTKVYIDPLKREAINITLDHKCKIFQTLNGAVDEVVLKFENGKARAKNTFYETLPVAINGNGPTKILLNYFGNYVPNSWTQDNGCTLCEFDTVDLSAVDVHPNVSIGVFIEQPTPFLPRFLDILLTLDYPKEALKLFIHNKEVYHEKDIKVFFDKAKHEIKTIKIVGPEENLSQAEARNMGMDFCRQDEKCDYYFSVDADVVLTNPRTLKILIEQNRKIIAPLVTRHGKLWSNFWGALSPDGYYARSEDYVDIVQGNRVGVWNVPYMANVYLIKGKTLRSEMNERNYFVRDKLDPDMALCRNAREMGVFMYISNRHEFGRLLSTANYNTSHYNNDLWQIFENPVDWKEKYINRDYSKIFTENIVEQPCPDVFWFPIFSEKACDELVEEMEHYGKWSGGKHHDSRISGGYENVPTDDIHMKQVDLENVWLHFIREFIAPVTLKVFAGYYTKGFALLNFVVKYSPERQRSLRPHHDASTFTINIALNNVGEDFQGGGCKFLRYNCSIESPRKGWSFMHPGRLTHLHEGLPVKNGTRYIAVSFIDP
In short: as §1

[12] = molecular target: T12, CAT Catalase (P04040) (Homo sapiens, UniProt P04040); settings: SILAC H/L, MDA-MB-231
T12 construct: endogenous in cells; host or cells: HEK293T or MDA-MB-231
In short: as §1

[13] = molecular target: T13, CPD Carboxypeptidase D (O75976) (Homo sapiens, UniProt O75976); settings: SILAC H/L, MDA-MB-231
T13 construct: In Situ Labelling of Cells with Hydrazine Probes for MS Experiments; endogenous in cells; host or cells: HEK293T and/or MDA-MB-231
T13 sequence (O75976 32-1380): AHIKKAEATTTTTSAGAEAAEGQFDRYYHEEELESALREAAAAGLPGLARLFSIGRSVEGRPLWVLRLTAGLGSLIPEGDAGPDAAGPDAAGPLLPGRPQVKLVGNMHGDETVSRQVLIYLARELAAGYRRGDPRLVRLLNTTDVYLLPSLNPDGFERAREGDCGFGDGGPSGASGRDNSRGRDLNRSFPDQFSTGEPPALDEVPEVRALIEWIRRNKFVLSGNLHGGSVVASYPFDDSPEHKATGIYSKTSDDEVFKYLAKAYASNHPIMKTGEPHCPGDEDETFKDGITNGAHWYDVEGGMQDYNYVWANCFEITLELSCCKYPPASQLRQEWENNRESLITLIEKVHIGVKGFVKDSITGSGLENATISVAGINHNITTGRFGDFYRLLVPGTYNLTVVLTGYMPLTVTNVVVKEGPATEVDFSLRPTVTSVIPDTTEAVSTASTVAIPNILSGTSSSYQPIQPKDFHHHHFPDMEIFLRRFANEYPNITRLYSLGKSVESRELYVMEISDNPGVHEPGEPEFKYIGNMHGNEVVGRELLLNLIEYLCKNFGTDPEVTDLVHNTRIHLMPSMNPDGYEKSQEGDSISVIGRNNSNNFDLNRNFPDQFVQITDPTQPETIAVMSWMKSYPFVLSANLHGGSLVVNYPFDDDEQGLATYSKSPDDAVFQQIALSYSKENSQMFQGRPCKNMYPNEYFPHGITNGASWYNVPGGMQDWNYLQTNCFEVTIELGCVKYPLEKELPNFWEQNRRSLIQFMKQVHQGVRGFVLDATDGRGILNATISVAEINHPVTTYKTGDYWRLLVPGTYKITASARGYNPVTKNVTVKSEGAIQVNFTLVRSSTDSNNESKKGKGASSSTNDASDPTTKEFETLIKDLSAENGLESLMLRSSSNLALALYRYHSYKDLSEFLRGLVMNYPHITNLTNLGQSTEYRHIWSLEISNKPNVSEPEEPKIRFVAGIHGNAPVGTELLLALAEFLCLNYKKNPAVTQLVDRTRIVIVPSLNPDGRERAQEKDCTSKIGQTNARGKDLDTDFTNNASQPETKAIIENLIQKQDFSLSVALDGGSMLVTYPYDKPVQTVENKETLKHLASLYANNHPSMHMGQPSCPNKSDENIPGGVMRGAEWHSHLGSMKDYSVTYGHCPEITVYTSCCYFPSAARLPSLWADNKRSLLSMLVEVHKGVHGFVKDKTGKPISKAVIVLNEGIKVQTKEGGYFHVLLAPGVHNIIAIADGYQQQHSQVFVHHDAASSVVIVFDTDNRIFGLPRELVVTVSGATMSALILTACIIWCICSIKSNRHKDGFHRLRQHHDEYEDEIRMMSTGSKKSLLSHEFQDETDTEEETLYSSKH
In short: as §1

[14] = molecular target: T14, PHYHD1 PhytanoylCoA dioxygenase (Q5SRE7) (Homo sapiens, UniProt Q5SRE7); settings: SILAC H/L, MDA-MB-231
T14 construct: In Situ Labelling of Cells with Hydrazine Probes for MS Experiments; endogenous in cells; host or cells: HEK293T and/or MDA-MB-231
T14 sequence (Q5SRE7 whole entry): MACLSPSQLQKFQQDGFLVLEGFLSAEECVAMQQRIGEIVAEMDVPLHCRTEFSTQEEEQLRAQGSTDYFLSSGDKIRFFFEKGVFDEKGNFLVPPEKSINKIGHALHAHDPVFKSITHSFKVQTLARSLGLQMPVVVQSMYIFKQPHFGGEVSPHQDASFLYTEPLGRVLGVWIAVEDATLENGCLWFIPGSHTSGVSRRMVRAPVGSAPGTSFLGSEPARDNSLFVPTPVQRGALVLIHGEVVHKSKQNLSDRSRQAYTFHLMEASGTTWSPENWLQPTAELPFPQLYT
In short: as §1

## C#CCCNC(=O)c1ccc(NN)cc1.Cl [probe 2, N-(but-3-yn-1-yl)-4-hydrazinylbenzamide hydrochloride]
[1]; probe 2 1 mM 0.5 h vs probe 4
  enrichment ratioavg: 20
[1]; probe 2 vs probe 2+10x probe 4
  competition ratioavg: 4
[2]; probe 2 1 mM 0.5 h vs probe 4
  enrichment ratioavg: 20
[2]; probe 2 vs probe 2+10x probe 4
  competition ratioavg: 15
[3]; probe 2 1 mM 0.5 h vs probe 4
  enrichment ratioavg: 10
[3]; probe 2 vs probe 2+10x probe 4
  competition ratioavg: 3
[4]; probe 2 1 mM 0.5 h vs probe 4
  enrichment ratioavg: 20
[4]; probe 2 vs probe 2+10x probe 4
  competition ratioavg: 20
[5]; probe 2 1 mM 0.5 h vs probe 4
  enrichment ratioavg: 20
[5]; probe 2 vs probe 2+10x probe 4
  competition ratioavg: 4
[6]; probe 2 1 mM 0.5 h vs probe 4
  enrichment ratioavg: 19
[6]; probe 2 vs probe 2+10x probe 4
  competition ratioavg: 3
[7]; probe 2 1 mM 0.5 h vs probe 4
  enrichment ratioavg: 14
[7]; probe 2 vs probe 2+10x probe 4
  competition ratioavg: 6
[8]; probe 2 1 mM 0.5 h vs probe 4
  enrichment ratioavg: 20
[8]; probe 2 vs probe 2+10x probe 4
  competition ratioavg: 2
[9]; probe 2 1 mM 0.5 h vs probe 4
  enrichment ratioavg: 20
[9]; probe 2 vs probe 2+10x probe 4
  competition ratioavg: 4
[10]; probe 2 1 mM 0.5 h vs probe 4
  enrichment ratioavg: 11
[10]; probe 2 vs probe 2+10x probe 4
  competition ratioavg: 3
[11]; probe 2 1 mM 0.5 h vs probe 4
  enrichment ratioavg: 6
[11]; probe 2 vs probe 2+10x probe 4
  competition ratioavg: 2
[12]; probe 2 1 mM 0.5 h vs probe 4
  enrichment ratioavg: 20
[12]; probe 2 vs probe 2+10x probe 4
  competition ratioavg: 1
[13]; probe 2 1 mM 0.5 h vs probe 4
  enrichment ratioavg: 20
[13]; probe 2 vs probe 2+10x probe 4
  competition ratioavg: 15
[14]; probe 2 1 mM 0.5 h vs probe 4
  enrichment ratioavg: 14
[14]; probe 2 vs probe 2+10x probe 4
  competition ratioavg: 5
